Laboratory results reported in the NIST ThermoML archive (doi:10.1016/j.jct.2011.06.024).

Experiment: mn = molality of the nth substance listed, in mol/kg
Conditions: 101 kPa, Liquid, Capillary tube (Ostwald / Ubbelohde) method

[Cl-].[Cl-].[Mg+2] [magnesium chloride] + O
viscosity [mPa·s]
Conditions	m1 = 0.003022	m1 = 0.004	m1 = 0.005	m1 = 0.007	m1 = 0.007995	m1 = 0.008994
303.15 K	0.8039	0.8323	0.8483	0.8693	0.8885	0.9112
308.15 K	0.7343	0.7545	0.7723	0.7896	0.8071	0.8198
313.15 K	0.6675	0.6865	0.7031	0.7195	0.7366	0.7601
318.15 K	0.6213	0.6301	0.6466	0.6648	0.6804	0.6989
323.15 K	0.5775	0.5975	0.6196	0.6244	0.6481	0.6697

O=[N+]([O-])[O-].O=[N+]([O-])[O-].[Mg+2] [magnesium nitrate] + O
viscosity [mPa·s]
Conditions	m1 = 0.003029	m1 = 0.004005	m1 = 0.005059	m1 = 0.007003	m1 = 0.008141	m1 = 0.009263
303.15 K	0.8036	0.8293	0.8454	0.8685	0.8903	0.9014
308.15 K	0.7327	0.751	0.7688	0.7895	0.8097	0.8156
313.15 K	0.6665	0.6847	0.7021	0.721	0.7356	0.7458
318.15 K	0.6195	0.6272	0.6449	0.6635	0.6813	0.6958
323.15 K	0.5575	0.5773	0.5927	0.6106	0.6176	0.6305

[Cl-].[K+] [potassium chloride] + O
viscosity [mPa·s]
Conditions	m1 = 0.003209	m1 = 0.003885	m1 = 0.004985	m1 = 0.006959	m1 = 0.008075	m1 = 0.009511
303.15 K	0.8063	0.8068	0.8076	0.8088	0.8094	0.8102
308.15 K	0.7279	0.7284	0.7292	0.7304	0.7286	0.7316
313.15 K	0.6616	0.6621	0.6629	0.6641	0.6647	0.6655
318.15 K	0.6045	0.6051	0.6059	0.6071	0.6077	0.6086
323.15 K	0.5552	0.5557	0.5566	0.5578	0.5584	0.5592

O=[N+]([O-])[O-].[K+] [potassium nitrate] + O
viscosity [mPa·s]
Conditions	m1 = 0.003067	m1 = 0.003997	m1 = 0.005019	m1 = 0.006997	m1 = 0.008615	m1 = 0.01033
303.15 K	0.8152	0.8175	0.819	0.8217	0.8244	0.8263
308.15 K	0.7365	0.7382	0.731	0.7433	0.7449	0.7472
313.15 K	0.6691	0.6705	0.6722	0.6752	0.6775	0.6782
318.15 K	0.6139	0.6157	0.6178	0.621	0.6231	0.6253
323.15 K	0.5658	0.568	0.5701	0.5737	0.5761	0.5785

CCCCCCCCCCCCOS(=O)(=O)[O-].[Na+] [sodium dodecyl sulfate] + O
viscosity [mPa·s]
Conditions	303.15 K	308.15 K	313.15 K	318.15 K	323.15 K
m1 = 0.007	0.8017	0.7228	0.6582	0.6009	0.5513
m1 = 0.01	0.8025	0.7285	0.6577	0.6026	0.5575
